Source: patent US12377110B2, “Fospropofol methods and compositions” (Epalex Corporation, priority 2019, dated 2025)

Key:
[1] = Study A16 Part 2: PK of a single dose of 1200 mg fospropofol disodium following a high-fat meal; type: in vivo, human
Procedure: Part 2 of Study A16 was a double-blind, placebo-controlled, single-close pilot study to investigate the PK, safety, and tolerability of 1200 mg of fospropofol disodium administered to healthy adult men and women following a high-fat meal.
Subjects were healthy adults (age 18-55 years inclusive, BMI 18-29.9 kg/m^2). A separate cohort of 15 subjects was randomly assigned to receive a single oral dose of either fospropofol disodium (n=12) or matching placebo (n=3) within 30 minutes (±1 minute) after the start of a standardized high-fat meal.
Subjects were admitted to the clinical unit for an overnight fast (Day −1), administered study drug on Day 1 within 30 minutes of the start a standardized high-fat meal, and remained in the clinical unit until Day 2.
Fospropofol disodium was formulated as powder in 6 HPMC capsules, each capsule containing 200 mg of fospropofol disodium (weight adjusted for water content). Placebo was administered as 6 matching capsules.

[2] = Study A17: PK of fospropofol and propofol after single oral dose of fospropofol disodium 800 mg in subjects with migraine
Procedure: The study is planned to complete approximately 85 subjects. • Enrolled subjects will be asked to come to the study site for treatment when they experience a qualifying migraine headache. Dosing must occur within 4 hours after onset of the migraine symptoms. If treatment at the study site is not feasible or practicable within 4 hours after onset of migraine symptoms, subjects should use their usual medication for that headache and attempt to visit the clinic for treatment as soon as possible (within 4 hours) after onset of their next migraine headache. Dosing must occur within 60 days after enrollment (see Post-enrollment Period below). • At clinic check-in for treatment, study personnel will verify eligibility for closing regarding the criteria for a qualifying headache and adherence to post-enrollment study restrictions (see Eligibility for Dosing below). • Treatment will consist of a single oral dose of fospropofol disodium. […] Because the prevalence of migraine headaches is higher in women than in men, efforts will be made to enroll at least 50% women. • Subjects must meet the general inclusion and exclusion criteria listed below (Inclusion Criteria and Exclusion Criteria) at screening to be enrolled in the study. To be eligible for fospropofol disodium treatment after onset of a migraine headache, enrolled subjects must meet criteria specific to the presenting headache at clinic check-in (see Qualifying Headache below) and adhere to study restrictions specific to the period between enrollment and clinic check-in (see Post-enrollment Restrictions below). • Inclusion Criteria Subjects must meet all of the following criteria at screening to be enrolled in the study: • 1. Written informed consent approved by the Institutional Review Board (IRB) given before any study-related procedures are performed • 2. […] Complete abstinence alone can be used as a method of contraception. • 6. […] Able to comprehend the nature of the study, capable of giving written informed consent, and able to communicate effectively with clinic staff (as assessed by the investigator) • 8. Available to volunteer for the entire study duration and willing to adhere to all protocol requirements, including the post-enrollment restrictions (see Post-enrollment Restrictions below) • 9. Agrees not to post any information related to the study on any website or social media site (e.g., Facebook, Twitter, LinkedIn, Google+, etc.) until the entire trial has been completed • 10. Willing to forgo rescue medicine for at least 2 hours after initiation of treatment with study drug (see In-Clinic Rescue Medicine) • Exclusion Criteria Subjects to whom any of the following criteria apply at screening will be excluded: • 1. History of hemiplegic migraine (at any time in the past). • 2. History of headaches of any type occurring on ≥15 days/month during any of the 3 months prior to screening. • 3.

[3] = Study No. 15-4 toxicokinetics of fospropofol and propofol in plasma; type: in vivo, Beagle dogs; conditions: for Propofol AUC0-6hr increase after 14 days compared with Day 1 / Propofol Cmax increase after 14 days compared with Day 1: 160-mg/kg
Procedure: The purpose of Study No. 15-4 (GLP) was to determine the potential toxicity of fospropofol in Beagle dogs when administered once daily by oral gavage for 14 days. […] Because the treatment-related clinical observations (consistent with the expected transient sedative actions of fospropofol) and effects on hematology and clinical chemistry parameters were considered nonadverse, the NOAEL was determined to be 160 mg/kg/day (3200 mg/m^2/day).

Structure (SMILES): CC(C)c1cccc(C(C)C)c1O [propofol, 2,6-diisopropylphenol]
- Propofol mean AUC following a high-fat meal relative to fasting ([1]; 1200 mg): approximately 40%
- Propofol mean Cmax under fed conditions relative to fasting ([1]; 1200 mg): approximately 19%
- Effect of high-fat meal on exposure ([1]; 1200 mg within 30 minutes after the start of a high-fat meal): significant reduction in exposure
- Tmax ([1]; both sexes, human, plasma, oral, 1200 mg, after a high-fat meal): 2 h
- Propofol CL/F ([1]; oral fospropofol disodium 1200 mg, Fed (Cohort 8), n = 7/12, mean): 3111 L/h
- Variability in propofol log AUC1 accounted for by time-to-treatment ([2]; 800 mg, 11 migraine subjects): ~63%
- Variability in propofol log AUC2 accounted for by time-to-treatment ([2]; 800 mg, 11 migraine subjects): ~55%
- Variability in propofol log AUC4 accounted for by time-to-treatment ([2]; 800 mg, 11 migraine subjects): ~40%
- Variability in propofol log Cmax accounted for by time-to-treatment ([2]; 800 mg, 11 migraine subjects): ~57%
- Association between time-to-treatment and log propofol Cmax, AUC1, AUC2, AUC4 ([2]; 800 mg, 11 migraine subjects (all female)): statistically significant inverse association
- Decrease of geometric mean propofol AUC1 per hour of delay in time-to-treatment ([2]; 800 mg, linear regression): 67.2 % per hour
- Decrease of geometric mean propofol AUC1 per minute of delay in time-to-treatment ([2]; 800 mg, linear regression): 1.84 % per minute
- Decrease of geometric mean propofol AUC2 per hour of delay in time-to-treatment ([2]; 800 mg, linear regression): 62.5 % per hour
- Decrease of geometric mean propofol AUC2 per minute of delay in time-to-treatment ([2]; 800 mg, linear regression): 1.62 % per minute
- Decrease of geometric mean propofol AUC4 per hour of delay in time-to-treatment ([2]; 800 mg, linear regression): 47.7 % per hour
- Decrease of geometric mean propofol AUC4 per minute of delay in time-to-treatment ([2]; 800 mg, linear regression): 1.08 % per minute
- Decrease of geometric mean propofol Cmax per hour of delay in time-to-treatment ([2]; 800 mg, linear regression): 58.5 % per hour
- Decrease of geometric mean propofol Cmax per minute of delay in time-to-treatment ([2]; 800 mg, linear regression): 1.45 % per minute
- Ratio of mean propofol Auc4, migraine subjects (all female) to female healthy volunteers ([2]; Study A17 vs. Study A16 800 mg Cohort, females only): 91%
- Propofol AUC0-6hr increase after 14 days compared with Day 1 ([3]; females): over 5 fold
- Propofol Cmax increase after 14 days compared with Day 1 ([3]; females): ~3 fold
- Propofol AUC0-6hr increase after 14 days compared with Day 1 ([3]; males): over 2 fold
- Propofol Cmax increase after 14 days compared with Day 1 ([3]; males): about 7 fold
- Tmax ([3]; Beagle, dog, plasma, po, Propofol Tmax, most groups): 5 to 60 min
- Increase of propofol Cmax and AUC0-6hr with dose ([3]; Day 1, both sexes): close proportional
- Increase of propofol Cmax and AUC0-6hr with dose ([3]; Day 14, both sexes): more than close proportional
- half-life ([3]; female, Beagle, dog, plasma, po, females): 30 to 78 min
- half-life ([3]; male, Beagle, dog, plasma, po, males): 48 to 108 min
